Laboratory results from patent publication US8871934B2, “Fluorene compound and pharmaceutical use thereof” (Japan Tobacco Inc., priority 2008, dated 2014).
pIC50: −log10 of the molar value. Where two headings read alike, the source gives them in different places.

Biological target: human PDHK2 (hPDHK2) (Homo sapiens (Human), UniProt Q15119)
Assay: Inhibitory action of PDHK activity in vitro (kinase reaction, residual PDH activity measured)
Format: biochemical
Procedure: In the case of human PDHK2 (hPDHK2, Genbank Accession No. NM_002611), modified hPDHK2 cDNA wherein FLAG-Tag sequence is added to the N terminal by a polymerase linkage reaction was prepared based on hPDHK2 cDNA clone (pReceiver-M01/PDK2-GeneCopoeia), and cloned into a vector (pET17b-Novagen). The recombinant construct was transformed into Escherichia coli (DH5α-TOYOBO). The recombinant clones were identified, plasmid DNA was isolated and subjected to the DNA sequence analysis. One clone which had the expected nucleic acid sequence was selected for expression work.
During the assay, the hPDHK2 enzyme concentration was set to the minimal concentration at which PDH is inhibited the most.
0.05 U/mL PDH (porcine heart PDH complex, Sigma P7032) and 1.6 μg/mL hPDHK2 were mixed in a buffer (50 mmol/L 3-morpholinopropanesulfonic acid (pH 7.0), 20 mmol/L dipotassium hydrogen phosphate, 60 mmol/L potassium chloride, 2 mmol/L magnesium chloride, 0.4 mmol/L EDTA, and 0.2% Pluronic F-68, 2 mmol/L dithiothreitol), the mixture was incubated at 4° C. overnight to give PDH/hPDHK2 complex. The test compound was diluted with dimethyl sulfoxide (DMSO). PDH/hPDHK2 complex (20 μL), test compound (1.5 μL) and 3.53 μmol/L ATP (diluted with buffer, 8.5 μL) were added to a half area 96 well UV-transparent microplate (Corning 3679), and PDHK reaction was performed at room temperature for 45 min. Instead of the test compound, DMSO (1.5 μL) was added to a control well. DMSO (1.5 μL) was added instead of the test compound to a blank well for the measurement of the maximum rate of PDH reaction, and hPDHK2 was not added. Than, 10 μL of substrates (5 mmol/L sodium pyruvate, 5 mmol/L Coenzyme A, 12 mmol/L NAD, and 5 mmol/L thiamine pyrophosphate, diluted with buffer) was added. The mixture was incubated at room temperature for 90 min, and the residual PDH activity was measured. The absorbance at 340 nm before and after PDH reaction was measured on a microplate reader to detect NADH produced by the PDH reaction. The PDHK inhibitory rate (%) of the test compound was calculated from the formula [{(PDH activity of test compound—PDH activity of control)/PDH activity of blank—PDH activity of control)}×100]. The IC50 value was calculated from the concentrations of the test compound at two points enclosing 50% inhibition of the PDHK activity.

[1] = PDHK inhibitory activity IC50 (μmol/L)
[2] = PDHK inhibitory activity, class symbol of IC50
[3] = read-out: PDHK inhibitory activity IC50

pIC50 [1] | Structure (SMILES) | pIC50 [2] | pIC50 [3]
7.82 | CNC(=O)Cn1cc(-c2cc(C)cc3c2-c2ccccc2[C@]3(O)C(F)(F)F)cn1 (stereo in doubt) [compound 533] | > 7.00 | –
7.80 | CNC(=O)Cn1cc(-c2cc(F)cc3c2-c2ccccc2[C@]3(O)C(F)(F)F)cn1 (stereo in doubt) [compound 534] | > 7.00 | –
7.46 | O=C(O)CCCn1cc(-c2cc(F)cc3c2-c2ccccc2[C@]3(O)C(F)(F)F)cn1 (stereo in doubt) [compound 537] | > 7.00 | –
7.44 | O=C(O)CCn1cc(-c2cc(F)cc3c2-c2ccccc2[C@]3(O)C(F)(F)F)cn1 (stereo in doubt) [compound 543] | > 7.00 | –
7.66 | OC1(Cn2cc(-c3cc(F)cc4c3-c3ccccc3[C@]4(O)C(F)(F)F)cn2)CCCCC1 (stereo in doubt) [compound 544] | > 7.00 | –
7.77 | OCC1(n2cc(-c3cc(F)cc4c3-c3ccccc3[C@]4(O)C(F)(F)F)cn2)CCCCC1 (stereo in doubt) [compound 545] | > 7.00 | –
7.82 | Cc1cc(-c2cnn(C3(CO)CCCC3)c2)c2c(c1)[C@@](O)(C(F)(F)F)c1ccccc1-2 (stereo in doubt) [compound 546] | > 7.00 | –
7.80 | OCC1(n2cc(-c3cc(F)cc4c3-c3ccccc3[C@]4(O)C(F)(F)F)cn2)CCCC1 (stereo in doubt) [compound 548] | > 7.00 | –
7.57 | O=C(O)C1(n2cc(-c3cc(F)cc4c3-c3ccccc3[C@]4(O)C(F)(F)F)cn2)CCCC1 (stereo in doubt) [compound 549] | > 7.00 | –
7.16 | Cc1cc(-c2cnn(CC(=O)O)c2)c2c(c1)[C@@](O)(C(F)(F)F)c1ccccc1-2 (stereo in doubt) [compound 550] | > 7.00 | –
6.96 | O=C(O)Cn1cc(-c2cc(F)cc3c2-c2ccccc2[C@]3(O)C(F)(F)F)cn1 (stereo in doubt) [compound 551] | 6.00 to 7.00 | –
– | OC1(C(F)(F)F)c2ccccc2-c2ncccc21 (centres unmarked) [compound 1] | < 6.00 | 5.66
– | Cc1cccc2c1-c1ccccc1C2(O)C(F)(F)F (centres unmarked) [compound 2] | < 6.00 | 5.64
– | Cc1ccc2c(c1)C(O)(C(F)(F)F)c1ccccc1-2 (centres unmarked) [compound 3] | < 6.00 | 5.80
– | OC1(C(F)(F)F)c2ccccc2-c2ccc(F)cc21 (centres unmarked) [compound 4] | < 6.00 | 5.64
– | OC1(C(F)(F)F)c2ccccc2-c2ccc(Cl)cc21 (centres unmarked) [compound 5] | < 6.00 | 5.93

pIC50 [1] | Structure (SMILES) | pIC50 [2] | pIC50 [3]
– | OC1(C(F)(F)F)c2ccccc2-c2c(Cl)cccc21 (centres unmarked) [compound 6] | < 6.00 | 5.64
– | OC1(C(F)(F)F)c2ccccc2-c2ccc(Br)cc21 (centres unmarked) [compound 7] | < 6.00 | 5.84
– | OC1(C(F)(F)F)c2ccccc2-c2cccc(Cl)c21 (centres unmarked) [compound 8] | < 6.00 | 4.34
– | OC1(C(F)(F)F)c2ccccc2-c2cc(Cl)ccc21 (centres unmarked) [compound 9] | < 6.00 | 4.70
– | Cc1ccc2c(c1)-c1ccccc1C2(O)C(F)(F)F (centres unmarked) [compound 10] | < 6.00 | 4.51
– | OC1(C(F)(F)F)c2ccccc2-c2c(F)cccc21 (centres unmarked) [compound 11] | < 6.00 | 5.17
– | OC1(C(F)(F)F)c2ccccc2-c2cc(F)ccc21 (centres unmarked) [compound 12] | < 6.00 | 5.26
– | OC1(C(F)(F)F)c2ccccc2-c2cccc(F)c21 (centres unmarked) [compound 13] | < 6.00 | 4.80
– | OC1(C(F)(F)F)c2cc(Cl)ccc2-c2ccc(Cl)cc21 [compound 14] | < 6.00 | 4.25
– | Cc1cccc2c1-c1ncccc1C2(O)C(F)(F)F (centres unmarked) [compound 15] | < 6.00 | 4.79
– | Cc1ccc2c(c1)C(O)(C(F)(F)F)c1cccnc1-2 (centres unmarked) [compound 16] | < 6.00 | 4.71
– | Cc1ccc2c(c1)C(O)(C(F)(F)F)c1cccc(C)c1-2 (centres unmarked) [compound 17] | < 6.00 | 4.86
– | Cc1cc(C)c2c(c1)C(O)(C(F)(F)F)c1ccccc1-2 (centres unmarked) [compound 18] | 6.00 to 7.00 | 6.34
– | CC(=O)Nc1cccc2c1-c1ccccc1C2(O)C(F)(F)F (centres unmarked) [compound 19] | < 6.00 | < 4.00
– | Nc1cccc2c1-c1ccccc1C2(O)C(F)(F)F (centres unmarked) [compound 20] | < 6.00 | 5.46
